PMC10504751, “Chalcone/1,3,4-Oxadiazole/Benzimidazole hybrids as novel anti-proliferative agents inducing apoptosis and inhibiting EGFR & BRAFV^600E” (BMC Chemistry, 2023)
Read-outs that look alike come from different tables or passages of the source.

Columns and labels:
[1] = test system: HCT-116; assay: NCI one-dose SRB anti-proliferative screen; type: cell-based, human; conditions: for inhibition at 10 µM: Homo sapiens, read-out: Cell growth inhibition %
Experimental: (§1) The twenty-four synthesized compounds were submitted to the National Cancer Institute (NCI), USA. Eighteen hybrids 7a-h, 7k-r, 7u, and 7v were selected by NCI for one-dose assessment of their anti-proliferative activities at 10 µM dose by Sulforhodamine B colorimetric assay. The assessment was performed in 60 cell lines derived from nine tumor subpanels, comprising lung, leukemia, melanoma, colon, renal, CNS, prostate, breast, and ovarian cancer cell lines.
(§2) The methodology of the NCI anti-proliferative screening has been described in details elsewhere (http://www.dtp.nci.nih.gov).

[2] = test system: MOLT-4; assay: NCI one-dose SRB anti-proliferative screen; type: cell-based, human; conditions: for inhibition at 10 µM: Homo sapiens, read-out: Cell growth inhibition %
Experimental: as §1, §2

[3] = test system: T-47D; assay: NCI one-dose SRB anti-proliferative screen; type: cell-based, human; conditions: Homo sapiens, T47D, read-out: Cell growth inhibition %
Experimental: as §1, §2

[4] = test system: K-562; assay: NCI one-dose SRB anti-proliferative screen; type: cell-based, human; conditions: for inhibition at 10 µM: Homo sapiens, K562, read-out: Cell growth inhibition %
Experimental: as §1, §2

[5] = test system: RXF 393; assay: NCI one-dose SRB anti-proliferative screen; type: cell-based, human; conditions: for inhibition at 10 µM: Homo sapiens, read-out: Cell growth inhibition %
Experimental: as §1, §2

[6] = MTT cell viability assay in normal cells; type: cell-based; conditions: human, MCF-10A normal mammary epithelial cells
Experimental: To check the safety of prepared compounds and evaluate their selectivity towards tumor cells over normal ones, the toxicity of compounds 7a-x were evaluated by 3-(4,5-Dimethylthiazole-2-yl)-2,5-diphenyltetrazol (MTT) assay on the normal human mammary epithelial cell line (MCF-10 A). The human mammary epithelial cell lines were incubated for four days with a concentration of 50 µM of compounds 7a-x.
MTT assay was done to determine the effect of the synthesized compounds on the viability of mammary epithelial cells (MCF-10 A). Compounds 7a-x were incubated with MCF-10 A cells for 4 days at 50 µM concentration, and the viability of cells was determined. See Appendix A.
MTT assay was carried out to study the effect of compounds on mammary epithelial cells (MCF-10A).^7, ^8 The medium in which cells were propagated contained Dulbecco's modified Eagle's medium (DMEM)/ Ham's F-12 medium (1:1) supplemented with epidermal growth factor (20 ng/mL), hydrocortisone (500 ng/mL), insulin (10 μg/mL), 2 mM glutamine and 10% foetal calf serum. After every 2-3 days, the cells were passaged using trypsin ethylenediamine tetra acetic acid (EDTA). The cells were seeded at a density of 10^4 cells mL^-1 in flat-bottomed culture plates containing 96 wells each. After 24 h, medium was removed from the plates and the compounds in (in 0.1% DMSO) were added (in 200 μL medium to yield a final concentration of 0.1% v/v) to the wells of plates. A single compound was designated with four wells followed by incubation of plates for 96h at 37°C. After incubation, medium was removed completely from the plates followed by addition of MTT (0.4 mg/mL in medium) to each well and subsequent incubation of plates for 3h. MTT (along with the medium) was removed and DMSO (150μL) was added to each well of the culture plates, followed by vortexing and subsequent measurement of absorbance (at 540 nm) using microplate reader.

[7] = biological target: T1, EGFR (Homo sapiens, UniProt P00533); assay: EGFR-TK inhibitory assay; type: biochemical; conditions: read-out: EGFR Inhibition IC50 ± SEM
T1 construct: EGFR cytoplasmic domain (EGFR-CD, amino acids 645–1186); His6 (N); made in house; host or cells: Sf-9 insect cells (baculovirus; pBlueBacHis2B / pFASTBacHTc)
T1 sequence (P00533 669-1210): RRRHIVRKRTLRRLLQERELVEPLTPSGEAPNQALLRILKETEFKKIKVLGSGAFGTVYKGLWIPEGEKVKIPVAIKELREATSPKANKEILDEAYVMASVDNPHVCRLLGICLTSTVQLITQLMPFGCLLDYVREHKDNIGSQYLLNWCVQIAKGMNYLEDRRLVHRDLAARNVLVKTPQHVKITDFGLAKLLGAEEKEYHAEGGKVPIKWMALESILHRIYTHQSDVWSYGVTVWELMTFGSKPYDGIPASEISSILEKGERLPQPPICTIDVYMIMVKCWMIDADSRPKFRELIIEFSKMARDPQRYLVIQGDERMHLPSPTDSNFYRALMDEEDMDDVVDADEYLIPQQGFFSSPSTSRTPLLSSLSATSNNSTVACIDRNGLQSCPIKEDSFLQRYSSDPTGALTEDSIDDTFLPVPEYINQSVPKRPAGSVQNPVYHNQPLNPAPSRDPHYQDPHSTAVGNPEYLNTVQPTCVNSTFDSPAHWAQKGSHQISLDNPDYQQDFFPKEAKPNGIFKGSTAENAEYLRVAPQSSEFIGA

[8] = test system: BT-549; assay: NCI one-dose SRB anti-proliferative screen; type: cell-based; conditions: Homo sapiens, read-out: Cell growth inhibition %
How it was run: (§3)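 Single dose, 10 µM; SRB colorimetric read-out; run as part of the 60-line, nine-subpanel tumour panel.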

[9] = test system: UO-31; assay: NCI one-dose SRB anti-proliferative screen; type: cell-based; conditions: Homo sapiens, read-out: Cell growth inhibition %
How it was run: as §3

[10] = test system: SF-268; assay: NCI one-dose SRB anti-proliferative screen; type: cell-based; conditions: Homo sapiens, read-out: Cell growth inhibition %
How it was run: as §3

[11] = test system: NCI/ADR-RES; assay: NCI one-dose SRB anti-proliferative screen; type: cell-based; conditions: Homo sapiens, read-out: Cell growth inhibition %
How it was run: as §3

[12] = test system: NCI-H522; assay: NCI one-dose SRB anti-proliferative screen; type: cell-based; conditions: Homo sapiens, read-out: Cell growth inhibition %
How it was run: as §3

[13] = test system: SNB-75; assay: NCI one-dose SRB anti-proliferative screen; type: cell-based; conditions: Homo sapiens, read-out: Cell growth inhibition %
How it was run: as §3

[14] = test system: CCRF-CEM; assay: NCI one-dose SRB anti-proliferative screen; type: cell-based; conditions: Homo sapiens, read-out: Cell growth inhibition %
How it was run: as §3

[15] = biological target: BRAF^V600E; assay: biochemical
BRAF^V600E, sequence (P28028 whole entry V585E): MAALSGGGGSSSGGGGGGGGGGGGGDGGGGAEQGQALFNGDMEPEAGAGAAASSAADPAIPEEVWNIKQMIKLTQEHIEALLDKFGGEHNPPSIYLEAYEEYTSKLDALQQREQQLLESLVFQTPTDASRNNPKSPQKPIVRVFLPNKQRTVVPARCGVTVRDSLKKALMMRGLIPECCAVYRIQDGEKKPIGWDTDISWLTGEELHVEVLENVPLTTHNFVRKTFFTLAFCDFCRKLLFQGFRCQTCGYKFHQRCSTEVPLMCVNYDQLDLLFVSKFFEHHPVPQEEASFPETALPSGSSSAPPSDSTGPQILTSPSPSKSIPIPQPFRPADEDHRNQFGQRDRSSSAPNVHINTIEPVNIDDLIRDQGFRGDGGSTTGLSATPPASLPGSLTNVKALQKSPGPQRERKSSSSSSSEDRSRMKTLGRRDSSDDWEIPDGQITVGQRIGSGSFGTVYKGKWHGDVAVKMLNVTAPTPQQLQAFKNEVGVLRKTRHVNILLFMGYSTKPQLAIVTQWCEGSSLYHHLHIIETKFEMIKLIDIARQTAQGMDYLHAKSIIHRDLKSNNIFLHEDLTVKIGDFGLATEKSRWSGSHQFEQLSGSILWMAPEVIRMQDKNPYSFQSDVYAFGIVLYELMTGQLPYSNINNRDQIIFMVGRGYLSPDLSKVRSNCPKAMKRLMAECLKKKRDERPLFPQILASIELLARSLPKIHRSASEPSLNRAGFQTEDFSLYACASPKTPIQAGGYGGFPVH
Experimental: To further denature the protein, heat (70° C) was applied for 5 min. […] 10 µL of each reaction was loaded into the precast plates and electrophoresis was allowed to proceed. After completion of electrophoresis, the front part of the precast gel plate (holding hot ATP) was cut and afterwards cast-off. The dried gel was developed using a phosphor screen.

## COc1cc(/C=C/C(=O)c2ccc(NC(=O)CSc3nnc(-c4ccc5[nH]c(-c6ccccc6)nc5c4)o3)cc2)cc(OC)c1OC [Compound 7e, 2-{5-[2-Phenyl-1 H-benzo[d]imidazol-5-yl]-1,3,4-oxadiazol-2-ylthio}-N-{4-[(E)-3-(3,4,5-trimethoxyphenyl)acryloyl]phenyl}acetamide]
[1]; HCT-116 (Colon Cancer), 10 µM one dose
  Growth Percent: 40.76%
[1]; HCT-116, Colon cancer, NCI one dose
  inhibition at 10 µM: 59.2%
[2]; MOLT-4, Leukemia, NCI one dose
  inhibition at 10 µM: 35%
[2]; MOLT-4 (Leukemia), 10 µM one dose
  Growth Percent: 30%
[3]; T-47D, Breast cancer, NCI one dose
  inhibition at 10 µM: 11.1%
[4]; K-562, Leukemia, NCI one dose
  inhibition at 10 µM: 41.7%
[4]; K-562 (Leukemia), 10 µM one dose
  Growth Percent: 58%
[5]; RXF 393, Renal cancer, NCI one dose
  inhibition at 10 µM: 107%
[5]; RXF 393 (Renal Cancer), 10 µM one dose
  Growth Percent: -6.89%
other
  melting point: 143 to 144 °C
[6]
  viability at 96 h, 50 µM: 87%
[7]
  IC50: 1150 ± 200 nM
[8]; BT-549, Breast cancer, NCI one dose
  inhibition at 10 µM: 18.4%
[9]; UO-31, Renal cancer, NCI one dose
  inhibition at 10 µM: 10.6%
[10]; SF-268, CNS Cancer, NCI one dose
  inhibition at 10 µM: 2.34%
[11]; NCI/ADR-RES, Ovarian Cancer, NCI one dose
  inhibition at 10 µM: 0%
[12]; NCI-H522, Non-Small Cell Lung Cancer, NCI one dose
  inhibition at 10 µM: 4.71%
[13]; SNB-75, CNS Cancer, NCI one dose
  inhibition at 10 µM: 18.9%
[14]; CCRF-CEM, Leukemia, NCI one dose
  inhibition at 10 µM: 62.5%
[15]
  IC50: 900 ± 100 nM

## COc1ccc(/C=C/C(=O)c2ccc(NC(=O)CSc3nnc(-c4ccc5[nH]c(-c6ccc(Cl)cc6)nc5c4)o3)cc2)cc1 [Compound 7h, 2-{5-[2-(4-Chlorophenyl)-1 H-benzo[d]imidazol-5-yl]-1,3,4-oxadiazol-2-ylthio}-N-{4-[(E)-3-(4-methoxyphenyl)acryloyl]phenyl}acetamide]
[1]; HCT-116 (Colon Cancer), NCI one dose 10 µM
  inhibition at 10 µM: 6.56%
[2]; MOLT-4 (Leukemia), NCI one dose 10 µM
  inhibition at 10 µM: 35.4%
[3]; T-47D (Breast Cancer), NCI one dose 10 µM
  inhibition at 10 µM: 22%
[4]; K-562 (Leukemia), NCI one dose 10 µM
  inhibition at 10 µM: 12.7%
[5]; RXF 393 (Renal Cancer), NCI one dose 10 µM
  inhibition at 10 µM: 0%
other
  melting point: 228 to 230 °C
[6]
  viability at 96 h, 50 µM: 87%
[7]
  IC50: 2300 ± 200 nM
[8]; BT-549 (Breast Cancer), NCI one dose 10 µM
  inhibition at 10 µM: 15%
[9]; UO-31 (Renal Cancer), NCI one dose 10 µM
  inhibition at 10 µM: 12.5%
[10]; SF-268 (CNS Cancer), NCI one dose 10 µM
  inhibition at 10 µM: 0%
[11]; NCI/ADR-RES (Ovarian Cancer), NCI one dose 10 µM
  inhibition at 10 µM: 0%
[12]; NCI-H522 (Non-Small Cell Lung Cancer), NCI one dose 10 µM
  inhibition at 10 µM: 20.9%
[13]; SNB-75 (CNS Cancer), NCI one dose 10 µM
  inhibition at 10 µM: 1.47%
[14]; CCRF-CEM (Leukemia), NCI one dose 10 µM
  inhibition at 10 µM: 40.1%
[15]
  IC50: 2700 ± 300 nM
